Data reported in US20250230193A1, “CYCLIC COMPOUND HAVING SELECTIVE KRAS INHIBITORY EFFECT ON HRAS AND NRAS” (CHUGAI SEIYAKU KABUSHIKI KAISHA, priority 2022, published 2025).
Where a SMILES comes first, the peptide text is derived from it. Bridges are numbered along the chain shown (N, C = ends). [ ]: non-standard residue; d: D form. The star is where a group is joined. hPhe(3,5-F2-4-CF3) = N[C@@H](CCc1cc(F)c(C(F)(F)F)c(F)c1)C(=O)O; hPhe(3-Cl-4-CF3) = N[C@@H](CCc1ccc(C(F)(F)F)c(Cl)c1)C(=O)O; NPrPhe(4-CF3) = CCCN[C@@H](Cc1ccc(C(F)(F)F)cc1)C(=O)O; NMeGly(cPent) = CN[C@H](C(=O)O)C1CCCC1; NMeGly(cBu) = CN[C@H](C(=O)O)C1CCC1; Hyp = O=C(O)[C@@H]1C[C@@H](O)CN1; NMeD = CN[C@@H](CC(=O)O)C(=O)O; NMeL = CN[C@@H](CC(C)C)C(=O)O; αMeV = CC(C)[C@](C)(N)C(=O)O; Morpholide = C1CN(*)CCO1; NMeA = CN[C@@H](C)C(=O)O; Ac5c = NC1(C(=O)O)CCCC1; Aze = O=C(O)[C@@H]1CCN1; Ac3c = NC1(C(=O)O)CC1; Sar = CNCC(=O)O

Tests used:
[1] = target: GDP-bound NRAS wild-type protein (Homo sapiens, UniProt P01111); experiment: Binding to NRAS by surface plasmon resonance (SPR), Single Cycle Kinetics; details: SPR; for NRAS/KRAS (ratio of KD value with respect to NRAS to KD value with respect to KRAS): GDP-bound NRAS wild-type vs GDP-bound KRAS wild-type
GDP-bound NRAS wild-type protein, sequence (P01111 whole entry): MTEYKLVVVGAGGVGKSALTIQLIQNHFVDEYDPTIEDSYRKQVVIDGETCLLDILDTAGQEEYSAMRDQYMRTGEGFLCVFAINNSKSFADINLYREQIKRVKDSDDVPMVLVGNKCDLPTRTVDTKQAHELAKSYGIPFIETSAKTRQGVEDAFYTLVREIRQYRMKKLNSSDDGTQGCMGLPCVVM

[2] = target: GDP-bound HRAS wild-type protein (Homo sapiens, UniProt P01112); experiment: Binding to HRAS by surface plasmon resonance (SPR), Single Cycle Kinetics; details: SPR; for HRAS/KRAS (ratio of KD value with respect to HRAS to KD value with respect to KRAS): GDP-bound HRAS wild-type vs GDP-bound KRAS wild-type
GDP-bound HRAS wild-type protein, sequence (P01112 whole entry): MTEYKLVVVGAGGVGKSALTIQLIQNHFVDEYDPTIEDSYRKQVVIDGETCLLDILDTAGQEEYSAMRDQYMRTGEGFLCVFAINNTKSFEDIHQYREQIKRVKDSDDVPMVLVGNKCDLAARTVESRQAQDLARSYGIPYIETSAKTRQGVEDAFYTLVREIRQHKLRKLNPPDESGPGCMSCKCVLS

CCCN1C(=O)CN(C)C(=O)CN(C)C(=O)[C@H]([C@@H](C)CC)NC(=O)[C@H](CC(C)C)N(C)C(=O)C[C@@H](C(=O)N2CCOCC2)N(C)C(=O)[C@H](C2CCCC2)N(C)C(=O)C2(CC2)NC(=O)[C@@H]2CCCN2C(=O)[C@H](CCc2ccc(C(F)(F)F)c(Cl)c2)NC(=O)CN(C)C(=O)[C@@H]1Cc1ccc(C(F)(F)F)cc1 [PP0229] ([NMeL]I[Sar][Sar][NPrPhe(4-CF3)][Sar][hPhe(3-Cl-4-CF3)]P[Ac3c][NMeGly(cPent)][NMeD]-Morpholide; lactam N-11)
NRAS/KRAS (ratio of KD for GDP-bound NRAS wild-type to KD for KRAS) [1]: B (a compound having 3 or more and less than 10 is denoted as B) | HRAS/KRAS (ratio of KD for GDP-bound HRAS wild-type to KD for KRAS) [2]: B (a compound having 3 or more and less than 10 is denoted as B)

CCCN1C(=O)CN(C)C(=O)[C@@H]2CCN2C(=O)[C@H]([C@@H](C)CC)NC(=O)[C@H](CC(C)C)N(C)C(=O)C[C@@H](C(=O)N2CCOCC2)N(C)C(=O)[C@H](C2CCCC2)N(C)C(=O)C2(CCCC2)NC(=O)[C@@H]2CCCN2C(=O)[C@H](CCc2cc(F)c(C(F)(F)F)c(F)c2)NC(=O)CN(C)C(=O)[C@@H]1Cc1ccc(C(F)(F)F)cc1 [PP0770] ([NMeL]I[Aze][Sar][NPrPhe(4-CF3)][Sar][hPhe(3,5-F2-4-CF3)]P[Ac5c][NMeGly(cPent)][NMeD]-Morpholide; lactam N-11)
NRAS/KRAS (ratio of KD value with respect to GDP-bound NRAS wild-type protein to KD value with respect to KRAS) [1]: B (a compound having 3 or more and less than 10 is denoted as B) | HRAS/KRAS (ratio of KD value with respect to GDP-bound HRAS wild-type protein to KD value with respect to KRAS) [2]: B (a compound having 3 or more and less than 10 is denoted as B)

CCCN1C(=O)[C@@H]2CCN2C(=O)[C@H](C)N(C)C(=O)[C@H]([C@@H](C)CC)NC(=O)[C@H](C2CCC2)N(C)C(=O)C[C@@H](C(=O)N2CCOCC2)N(C)C(=O)[C@H](C2CCCC2)N(C)C(=O)C2(CCCC2)NC(=O)[C@@H]2CCCN2C(=O)[C@H](CCc2ccc(C(F)(F)F)c(Cl)c2)NC(=O)CN(C)C(=O)[C@@H]1Cc1ccc(C(F)(F)F)cc1 [PP0192] ([NMeGly(cBu)]I[NMeA][Aze][NPrPhe(4-CF3)][Sar][hPhe(3-Cl-4-CF3)]P[Ac5c][NMeGly(cPent)][NMeD]-Morpholide; lactam N-11)
NRAS/KRAS (ratio of KD for GDP-bound NRAS wild-type to KD for KRAS) [1]: C (A compound having a KD ratio of 0.1 or more and less than 3 is denoted as C) | HRAS/KRAS (ratio of KD for GDP-bound HRAS wild-type to KD for KRAS) [2]: B (a compound having 3 or more and less than 10 is denoted as B)

CCCN1C(=O)[C@@H]2CCN2C(=O)[C@H](C)N(C)C(=O)[C@H]([C@@H](C)CC)NC(=O)[C@H](CC(C)C)N(C)C(=O)C[C@@H](C(=O)N2CCOCC2)N(C)C(=O)[C@H](C2CCCC2)N(C)C(=O)C2(CCCC2)NC(=O)[C@@H]2C[C@@H](OCC)CN2C(=O)[C@H](CCc2ccc(C(F)(F)F)c(Cl)c2)NC(=O)CN(C)C(=O)[C@@H]1Cc1ccc(C(F)(F)F)cc1 [PP0228] ([NMeL]I[NMeA][Aze][NPrPhe(4-CF3)][Sar][hPhe(3-Cl-4-CF3)][Hyp](Et)[Ac5c][NMeGly(cPent)][NMeD]-Morpholide; lactam N-11)
NRAS/KRAS (ratio of KD for GDP-bound NRAS wild-type to KD for KRAS) [1]: C (A compound having a KD ratio of 0.1 or more and less than 3 is denoted as C) | HRAS/KRAS (ratio of KD for GDP-bound HRAS wild-type to KD for KRAS) [2]: B (a compound having 3 or more and less than 10 is denoted as B)

CCCN1C(=O)CN(C)C(=O)CN(C)C(=O)[C@H]([C@@H](C)CC)NC(=O)[C@H](CC(C)C)N(C)C(=O)C[C@@H](C(=O)N2CCOCC2)N(C)C(=O)[C@H](C2CCCC2)N(C)C(=O)[C@](C)(C(C)C)NC(=O)[C@@H]2CCCN2C(=O)[C@H](CCc2cc(F)c(C(F)(F)F)c(F)c2)NC(=O)CN(C)C(=O)[C@@H]1Cc1ccc(C(F)(F)F)cc1 [PP0756] ([NMeL]I[Sar][Sar][NPrPhe(4-CF3)][Sar][hPhe(3,5-F2-4-CF3)]P[αMeV][NMeGly(cPent)][NMeD]-Morpholide; lactam N-11)
NRAS/KRAS (ratio of KD value with respect to GDP-bound NRAS wild-type protein to KD value with respect to KRAS) [1]: B (a compound having 3 or more and less than 10 is denoted as B) | HRAS/KRAS (ratio of KD value with respect to GDP-bound HRAS wild-type protein to KD value with respect to KRAS) [2]: B (a compound having 3 or more and less than 10 is denoted as B)

CCO[C@@H]1C[C@H]2C(=O)NC3(CC(C)(C)C3)C(=O)N(C)[C@@H](C3CCCC3)C(=O)N(C)[C@H](C(=O)N(C)CC)CC(=O)N(C)[C@H]3CCCCCc4ccc(cc4)C[C@@H](C(=O)N(C)CC(=O)N[C@@H](CCc4ccc(C(F)(F)F)c(OC)c4)C(=O)N2C1)N1CC/C=C\C[C@@H](C1=O)N(C)C(=O)CN(C)C(=O)[C@H]([C@@H](C)CC)NC3=O [PP2259]
NRAS/KRAS (ratio of KD value with respect to NRAS to KD value with respect to KRAS) [1]: A (a compound having 10 or more and less than 20 is denoted as A) | HRAS/KRAS (ratio of KD value with respect to HRAS to KD value with respect to KRAS) [2]: B (a compound having 3 or more and less than 10 is denoted as B)

CCO[C@@H]1C[C@H]2C(=O)NC3(CCC3)C(=O)N(C)[C@@H](C3CCCC3)C(=O)N(CC)[C@H](C(=O)N3CCOCC3)CC(=O)N(C)[C@@H](Cc3ccccc3)C(=O)N[C@@H]([C@@H](C)CC)C(=O)N(C)CC(=O)N(C)[C@H]3CCCCCN(C3=O)[C@@H](Cc3ccc(C(F)(F)F)cc3)C(=O)N(C)CC(=O)N[C@@H](CCc3cc(F)c(C(F)(F)F)c(F)c3)C(=O)N2C1 [PP0950]
NRAS/KRAS (ratio of KD value with respect to NRAS to KD value with respect to KRAS) ([1]; KD ratio): A (a compound having 10 or more and less than 20 is denoted as A) | HRAS/KRAS (ratio of KD value with respect to HRAS to KD value with respect to KRAS) ([2]; KD ratio): B (a compound having 3 or more and less than 10 is denoted as B)
